Data set [1] concerns the target T1, MT2 receptors (Homo sapiens, UniProt P49286).
T1 sequence (P49286 1-362): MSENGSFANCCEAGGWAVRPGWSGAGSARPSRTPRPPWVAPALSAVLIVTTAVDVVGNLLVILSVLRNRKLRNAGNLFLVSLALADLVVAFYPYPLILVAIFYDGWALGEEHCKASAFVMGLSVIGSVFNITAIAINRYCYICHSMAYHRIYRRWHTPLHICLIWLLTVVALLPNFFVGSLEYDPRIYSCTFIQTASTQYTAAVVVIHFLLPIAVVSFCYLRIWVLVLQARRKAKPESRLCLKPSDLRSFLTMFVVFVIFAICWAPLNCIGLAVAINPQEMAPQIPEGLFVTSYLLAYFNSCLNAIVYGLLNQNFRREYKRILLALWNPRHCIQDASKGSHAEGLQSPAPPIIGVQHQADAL
The following applies: relative to parent drug; cited from earlier work.

For data set [2], the system named is hepatic tumors. The following applies: high concentration; chronic toxicology study; cited from earlier work.
The target of data set [3] is MT1 receptors (Homo sapiens, UniProt P48039). The note with it: relative to parent drug; cited from earlier work.
For data set [4], the system named is Caco-2 monolayer. The data set can be described thus: Permeability through Caco-2 monolayer. The following applies: in vitro. It is filed as in vitro ADME. (In general: Caco-2 monolayers are a common model of the intestinal barrier.)
The conditions of data set [5]: cited from earlier work.
A short description of data set [6]: Pharmacokinetics of ramelteon after nasal and oral administration. More on the design: species or system SD rats. The following applies: Sprague-Dawley (SD), rat, in vivo. On the procedure: The objective was to study the pharmacokinetics of Ramelteon by determining the plasma concentrations after oral and intranasal administration. SD rats (n=3-4 for each dose) received an intranasal dose (0.1 mg/animal) of nasal solution composition (RNS-01, 2.5 mg/mL) which was prepared according to the EXAMPLE 1 of this invention, and an oral dose (0.1 mg/animal) of […] oral solution (ROS-01) which was prepared by directly dissolving ramelteon into saline solution to the final concentration of 0.1 mg/mL. Multiple blood samples were collected from tail vein until 6 hrs. Ramelteon concentration in rat plasma was determined using a validated LC/MS/MS method. The standard non-compartmental method was used to generate the pharmacokinetic parameters.

Data set [7] deals with other CNS receptors associated with sedation (e.g., GABA, dopamine, opiate, serotonin). The following applies: cited from earlier work.

Sequence of MT1 receptors (P48039 whole entry): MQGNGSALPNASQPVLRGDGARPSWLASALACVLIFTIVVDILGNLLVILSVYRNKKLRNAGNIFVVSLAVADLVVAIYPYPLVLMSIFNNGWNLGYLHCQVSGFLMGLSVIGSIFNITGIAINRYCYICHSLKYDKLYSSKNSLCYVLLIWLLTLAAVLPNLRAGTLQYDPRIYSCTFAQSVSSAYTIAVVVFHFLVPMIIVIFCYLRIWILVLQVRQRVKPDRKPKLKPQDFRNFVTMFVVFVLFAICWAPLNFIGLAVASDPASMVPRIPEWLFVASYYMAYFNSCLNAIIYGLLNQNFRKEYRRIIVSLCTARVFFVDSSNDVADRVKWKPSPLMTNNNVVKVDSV

Regarding `CC(O)C(=O)NCCC1CCc2ccc3c(c21)CCO3` (centres unmarked) [M-II], in data set [1], the “binding affinity for MT2 receptor relative to ramelteon” value was “one-fifth”. In addition, the “incidence of hepatic tumors” value in data set [2] was “increase the incidence of hepatic tumors”. The “binding affinity for MT1 receptor relative to ramelteon” value in data set [3] is “about one-tenth”.

For the compound `CCC(=O)NCC[C@@H]1CCc2ccc3c(c21)CCO3` [ramelteon], the “permeability through Caco-2 monolayer” value in data set [4] is on record as “high permeability”. Further, the “increase of systemic exposure (AUC) after co-administration of fluvoxamine” value in data set [5] (fluvoxamine, a strong CYP1A2 inhibitor) is “approximately 190 fold”. For the same compound, the inter-subject variability entry in data set [5] (oral ramelteon) is “up to 100%”. The “improvement of bioavailability, intranasal versus oral solution of same dose” value in data set [6] is recorded as “over 20 fold”. Moreover, in data set [7], the “affinity for other CNS receptors” value is listed as “no affinity”.

Values taken from patent US20210113456A1, “PHARMACEUTICAL COMPOSITIONS OF RAMELTEON AND METHODS OF USE THEREOF” (MAXINASE LIFE SCIENCES LIMITED, priority 2017, published 2021).
